Laboratory results reported in patent US10344060B2 (priority 2013, dated 2019).

What follows are molecules tested against hNav1.7 (Homo sapiens, UniProt Q15858) (assay: cell-based). Conditions: ratio of IonWorks Quattro IC50 values, Nav1.4 over Nav1.7.
Sequence of hNav1.7 (Q15858 whole entry): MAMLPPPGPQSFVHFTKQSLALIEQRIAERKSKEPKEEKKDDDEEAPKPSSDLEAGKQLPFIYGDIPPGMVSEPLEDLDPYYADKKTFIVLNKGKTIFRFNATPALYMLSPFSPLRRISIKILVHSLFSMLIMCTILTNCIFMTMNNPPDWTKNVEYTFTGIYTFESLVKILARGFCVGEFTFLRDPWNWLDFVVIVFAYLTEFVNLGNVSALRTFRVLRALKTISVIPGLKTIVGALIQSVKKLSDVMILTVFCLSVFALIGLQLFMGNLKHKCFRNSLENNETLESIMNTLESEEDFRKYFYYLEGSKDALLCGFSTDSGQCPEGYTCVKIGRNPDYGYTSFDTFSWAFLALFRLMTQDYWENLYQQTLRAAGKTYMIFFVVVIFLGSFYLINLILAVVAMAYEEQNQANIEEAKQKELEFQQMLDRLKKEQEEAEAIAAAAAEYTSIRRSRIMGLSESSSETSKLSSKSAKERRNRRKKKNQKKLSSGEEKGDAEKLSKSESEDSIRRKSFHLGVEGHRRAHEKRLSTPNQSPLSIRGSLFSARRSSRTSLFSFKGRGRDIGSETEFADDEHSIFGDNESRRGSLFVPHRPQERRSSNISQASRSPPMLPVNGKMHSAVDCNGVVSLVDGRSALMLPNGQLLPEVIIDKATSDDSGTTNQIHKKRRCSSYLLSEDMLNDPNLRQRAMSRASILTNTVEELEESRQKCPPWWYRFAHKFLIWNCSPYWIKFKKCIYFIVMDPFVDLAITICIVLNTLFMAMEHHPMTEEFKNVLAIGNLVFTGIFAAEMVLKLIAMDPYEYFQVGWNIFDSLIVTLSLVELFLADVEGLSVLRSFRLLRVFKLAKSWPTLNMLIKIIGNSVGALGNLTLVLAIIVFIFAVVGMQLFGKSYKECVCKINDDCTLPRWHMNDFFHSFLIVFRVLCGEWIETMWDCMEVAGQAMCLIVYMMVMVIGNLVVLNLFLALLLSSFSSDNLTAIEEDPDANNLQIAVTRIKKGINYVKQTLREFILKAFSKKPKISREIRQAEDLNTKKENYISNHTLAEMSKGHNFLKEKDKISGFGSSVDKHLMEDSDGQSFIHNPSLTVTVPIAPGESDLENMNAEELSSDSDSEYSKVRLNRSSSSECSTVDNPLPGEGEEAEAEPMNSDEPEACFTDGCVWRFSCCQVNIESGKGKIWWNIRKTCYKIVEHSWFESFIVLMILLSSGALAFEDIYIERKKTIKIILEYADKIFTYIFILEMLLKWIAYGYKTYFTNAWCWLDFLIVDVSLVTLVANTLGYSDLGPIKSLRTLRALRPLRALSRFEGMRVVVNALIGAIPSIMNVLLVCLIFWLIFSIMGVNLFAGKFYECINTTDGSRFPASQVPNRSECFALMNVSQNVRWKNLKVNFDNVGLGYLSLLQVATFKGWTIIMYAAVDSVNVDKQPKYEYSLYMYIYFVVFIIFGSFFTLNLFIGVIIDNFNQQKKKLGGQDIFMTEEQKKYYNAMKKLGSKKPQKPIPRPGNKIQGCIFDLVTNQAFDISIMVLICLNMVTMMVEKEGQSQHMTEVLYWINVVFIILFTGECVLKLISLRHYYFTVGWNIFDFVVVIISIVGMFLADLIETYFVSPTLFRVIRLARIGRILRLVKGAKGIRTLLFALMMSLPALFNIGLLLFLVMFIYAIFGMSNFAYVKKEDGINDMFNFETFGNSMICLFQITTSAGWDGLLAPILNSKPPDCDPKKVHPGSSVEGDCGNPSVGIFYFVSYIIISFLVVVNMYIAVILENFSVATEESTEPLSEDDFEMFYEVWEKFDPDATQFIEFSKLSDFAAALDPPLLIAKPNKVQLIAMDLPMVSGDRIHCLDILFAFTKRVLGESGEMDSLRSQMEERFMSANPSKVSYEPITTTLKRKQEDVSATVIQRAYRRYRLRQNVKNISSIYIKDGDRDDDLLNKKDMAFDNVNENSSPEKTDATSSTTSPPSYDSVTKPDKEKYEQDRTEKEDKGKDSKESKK
Work on `CC[C@H](C)[C@H](NC(=O)[C@@H](NC(=O)[C@H](CCCCN)NC(=O)[C@H](CCCNC(=N)N)NC(=O)[C@@H]1CSSC[C@@H]2NC(=O)[C@H](C)NC(=O)[C@H](CCCNC(=N)N)NC(=O)[C@H](CCCCN)NC(=O)[C@H](CO)NC(=O)[C@H](CC(=O)O)NC(=O)[C@@H]3CSSC[C@H](NC(=O)[C@H]([C@@H](C)CC)NC(=O)[C@H](CC(C)C)NC(=O)CNC(=O)[C@H](CCC(=O)O)NC(=O)[C@H](CSSC[C@H](NC(=O)[C@@H](N)Cc4ccc(O)cc4)C(=O)N[C@@H](CCC(N)=O)C(=O)N[C@@H](CCCCN)C(=O)N[C@@H](Cc4c[nH]c5ccccc45)C(=O)N[C@@H](CCSC)C(=O)N[C@@H](Cc4c[nH]c5ccccc45)C(=O)N[C@@H]([C@@H](C)O)C(=O)N3)NC2=O)C(=O)N[C@@H](CCCCN)C(=O)N[C@@H](CC(C)C)C(=O)N[C@@H](Cc2c[nH]c3ccccc23)C(=O)N1)[C@@H](C)CC)C(N)=O` [compound 118] yielded a Nav1.4/Nav1.7 of 15.
In the case of `CC[C@H](C)[C@H](NC(=O)[C@@H](NC(=O)[C@H](CCCCN)NC(=O)[C@H](CCCNC(=N)N)NC(=O)[C@@H]1CSSC[C@@H]2NC(=O)[C@H](C)NC(=O)[C@H](CCCNC(=N)N)NC(=O)[C@H](CCCCN)NC(=O)[C@H](CO)NC(=O)[C@H](CC(=O)O)NC(=O)[C@@H]3CSSC[C@H](NC(=O)[C@H](CC(C)C)NC(=O)[C@H](CC(C)C)NC(=O)CNC(=O)[C@H](CCC(=O)O)NC(=O)[C@H](CSSC[C@H](NC(=O)[C@@H](N)Cc4ccc(O)cc4)C(=O)N[C@@H](CCC(N)=O)C(=O)N[C@@H](CCCCN)C(=O)N[C@@H](Cc4c[nH]c5ccccc45)C(=O)N[C@@H](CCSC)C(=O)N[C@@H](Cc4c[nH]c5ccccc45)C(=O)N[C@@H]([C@@H](C)O)C(=O)N3)NC2=O)C(=O)N[C@@H](CCCCN)C(=O)N[C@@H](CC(C)C)C(=O)N[C@@H](Cc2c[nH]c3ccccc23)C(=O)N1)[C@@H](C)CC)C(N)=O` [compound 119], the Nav1.4/Nav1.7 is reported as 14.
For `CC[C@H](C)[C@H](NC(=O)[C@@H](NC(=O)[C@H](CCCCN)NC(=O)[C@H](CCCNC(=N)N)NC(=O)[C@@H]1CSSC[C@@H]2NC(=O)[C@H](C)NC(=O)[C@H](CCCNC(=N)N)NC(=O)[C@H](CCCCN)NC(=O)[C@H](CO)NC(=O)[C@H](CC(=O)O)NC(=O)[C@@H]3CSSC[C@H](NC(=O)[C@H](C(C)C)NC(=O)[C@H](CC(C)C)NC(=O)CNC(=O)[C@H](CCC(=O)O)NC(=O)[C@H](CSSC[C@H](NC(=O)[C@@H](N)Cc4ccc(O)cc4)C(=O)N[C@@H](CCC(N)=O)C(=O)N[C@@H](CCCCN)C(=O)N[C@@H](Cc4c[nH]c5ccccc45)C(=O)N[C@@H](CCSC)C(=O)N[C@@H](Cc4c[nH]c5ccccc45)C(=O)N[C@@H]([C@@H](C)O)C(=O)N3)NC2=O)C(=O)N[C@@H](CCCCN)C(=O)N[C@@H](CC(C)C)C(=O)N[C@@H](Cc2c[nH]c3ccccc23)C(=O)N1)[C@@H](C)CC)C(N)=O` [compound 120], the Nav1.4/Nav1.7 was 31.
`CC[C@H](C)[C@H](NC(=O)[C@@H](NC(=O)[C@H](CCCCN)NC(=O)[C@H](CCCNC(=N)N)NC(=O)[C@@H]1CSSC[C@@H]2NC(=O)[C@H](C)NC(=O)[C@H](CCCNC(=N)N)NC(=O)[C@H](CCCCN)NC(=O)[C@H](CO)NC(=O)[C@H](CC(=O)O)NC(=O)[C@@H]3CSSC[C@H](NC(=O)[C@H](CCCNC(N)=O)NC(=O)[C@H](CC(C)C)NC(=O)CNC(=O)[C@H](CCC(=O)O)NC(=O)[C@H](CSSC[C@H](NC(=O)[C@@H](N)Cc4ccc(O)cc4)C(=O)N[C@@H](CCC(N)=O)C(=O)N[C@@H](CCCCN)C(=O)N[C@@H](Cc4c[nH]c5ccccc45)C(=O)N[C@@H](CCSC)C(=O)N[C@@H](Cc4c[nH]c5ccccc45)C(=O)N[C@@H]([C@@H](C)O)C(=O)N3)NC2=O)C(=O)N[C@@H](CCCCN)C(=O)N[C@@H](CC(C)C)C(=O)N[C@@H](Cc2c[nH]c3ccccc23)C(=O)N1)[C@@H](C)CC)C(N)=O` [compound 122] gave a Nav1.4/Nav1.7 of 15.
